Data as given in patent US20010041737A1, “Enhancing the toxicity of warfarin in rodents” (priority 1998, published 2001).
Where a name gives a salt, the structure may show the parent alone.

Tested on: warfarin-resistant Norway rats from Chicago, Illinois
Assay: Example II: feeding test of 50 ppm warfarin bait with or without antibiotic
Type: in vivo
Details: conclusion in words from the Example II mortality figures

CN(C)[C@@H]1C(O)=C(C(N)=O)C(=O)[C@@]2(O)C(O)=C3C(=O)c4c(O)cccc4[C@@](C)(O)[C@H]3C[C@@H]12 [tetracycline hydrochloride]
Effect of the antibiotic on the toxicity of warfarin: appears to enhance the toxicity of warfarin
